What all share (assay type): in vivo
For assay [1], the system named is Bean Rust (Uromyces appendiculatus). As to the kind of experiment: Greenhouse control of bean rust, second experiment. The settings on record: common bean, 10 days after infection (200 k conidia/ml), RTI472 and SERENADE OPTIMUM 1×10^8 cfu/ml, Tebuconazole 50 g a.i./ha, Chlorothalonil 500 g a.i./ha, non-treated 23% disease.
The test system of assay [2] is Pepper Botrytis Blight (Botrytis cinerea). As to the kind of experiment: Greenhouse control of Pepper Botrytis Blight. The note with it: 7 days after infection (1M conidia/ml), RTI472 and SERENADE OPTIMUM 1×10^8 cfu/ml, Tebuconazole 50 g a.i./ha, Chlorothalonil 500 g a.i./ha, non-treated 6% disease.
Assay [3] relates to Soybean Powdery Mildew (Microsphaera diffusa). The assay can be described thus: Greenhouse control of soybean powdery mildew. The settings on record: 9 days after placing between infected flats, 1×10^8 cfu/ml, Tebuconazole (HORIZON) 50 g a.i./ha, non-treated 70% disease.
In assay [4] the test system is Pepper Botrytis Blight (Botrytis cinerea). As to the kind of experiment: Greenhouse dose response for control of Pepper Botrytis Blight. The note with it: 3 days after infection (1M conidia/ml), 50 g a.i./ha.
Assay [5] shares this test system. As to the kind of experiment: Greenhouse control of Pepper Botrytis Blight at varying pathogen inoculation rates. The note with it: 4 days after infection, biologicals 1 × 10^8, Tebuconazole 50 g a.i./ha, non-treated 65% disease.

As to `N#Cc1c(Cl)c(Cl)c(Cl)c(C#N)c1Cl` [Chlorothalonil], the “Percent Disease Control” value is recorded as 100 a Percent in assay [1] and 99 a Percent in assay [2].

For `CC(C)(C)C(O)(CCc1ccc(Cl)cc1)Cn1cncn1` (centres unmarked) [Tebuconazole], the “Percent Disease Control” value in assay [1] worked out at 100 a Percent; in assay [3], 100 a Percent; in assay [2] it was 99 a Percent; in assay [4], 100 a Percent; in assay [5] (inoculum 1M conidia/ml), 100 a Percent; in assay [5] (inoculum 2M conidia/ml), 94 a Percent.

These data come from patent US20160183537A1 (priority 2014, published 2016).
